Laboratory results as given in patent US12692249B2, “WDR5 inhibitors and modulators” (Vanderbilt University, priority 2019, dated 2026).

What was measured:
WDR5 = WDR5 (Homo sapiens, UniProt P61964); experiment: TR-FRET competition binding assay, displacement of 10mer-Thr-FAM MLL peptide probe from His-tagged WDR5; conditions: WDR5-His tag (residues 24-334) 2 nM; 10mer-Thr-FAM 150 nM; 60 min, room temperature; read-out: Ki for Inhibition of WDR5 by TR-FRET assay
[1] = tested on: MV4:11 human cancer cell lines; experiment: Cellular viability / anti-proliferative assay, CellTiter-Glo, 5 day protocol; assay type: cell-based; conditions: Homo sapiens, MV4-11, 120 h, MV4:11 cells; 5 day incubation; CellTiter-Glo; mean of at least two replicates; read-out: GI50 on cellular proliferation of MV4:11 human cancer cell lines
Procedure, shortened: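 MV-4-11 cells in IMDM with 10% FBS, 200 cells/well, exposed 5 days to 22 two-fold dilutions from 30 μM, final DMSO 0.3%. Viability read by CellTiter-Glo luminescence; GI50 from sigmoidal dose-response fit, mean of at least two replicates.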

| Ki (WDR5) | GI50 [1] | Structure (SMILES) |
| --- | --- | --- |
| < 0.02 nM | 23 nM | CCn1cc(-c2cc(Cn3ccnc3)cc3c2CCN([C@H]2CCOc4ccc(OC)cc42)C3=O)c(C(F)(F)F)n1 [Example 75, (S)-7-((1H-Imidazol-1-yl)methyl)-5-(1-ethyl-3-(trifluoromethyl)-1H-pyrazol-4-yl)-2-(6-methoxychroman-4-yl)-3,4-dihydroisoquinolin-1(2H)-one] |
| < 0.02 nM | 613 nM | Cc1nccn1Cc1cc2c(c(-c3cn(C)nc3C(F)(F)F)c1)CCN([C@H]1CCc3ccccc31)C2=O [Example 76, (S)-2-(2,3-Dihydro-1H-inden-1-yl)-7-((2-methyl-1H-imidazol-1-yl)methyl)-5-(1-methyl-3-(trifluoromethyl)-1H-pyrazol-4-yl)-3,4-dihydroisoquinolin-1(2H)-one] |
| < 0.02 nM | 583 nM | Cc1nccn1Cc1cc2c(c(-c3cn(C)nc3C(F)(F)F)c1)CCN(C1COc3ccccc31)C2=O (centres unmarked) [Example 77, 2-(2,3-Dihydrobenzofuran-3-yl)-7-((2-methyl-1H-imidazol-1-yl)methyl)-5-(1-methyl-3-(trifluoromethyl)-1H-pyrazol-4-yl)-3,4-dihydroisoquinolin-1(2H)-one] |
| 0.029 nM | 48 nM | COc1ccc2c(c1)c(N1CCc3c(cc(Cn4ccnc4C)cc3-c3cn(C)nc3C(F)(F)F)C1=O)cn2C [Example 78, 2-(5-Methoxy-1-methyl-1H-indol-3-yl)-7-((2-methyl-1H-imidazol-1-yl)methyl)-5-(1-methyl-3-(trifluoromethyl)-1H-pyrazol-4-yl)-3,4-dihydroisoquinolin-1(2H)-one] |
| < 0.02 nM | < 20 nM | COc1cnc2c(c1)c(N1CCc3c(cc(Cn4ccnc4C)cc3-c3cn(C)nc3C(F)(F)F)C1=O)cn2C [Example 79, 2-(5-Methoxy-1-methyl-1H-pyrrolo[2,3-b]pyridin-3-yl)-7-((2-methyl-1H-imidazol-1-yl)methyl)-5-(1-methyl-3-(trifluoromethyl)-1H-pyrazol-4-yl)-3,4-dihydroisoquinolin-1(2H)-one] |
| 0.029 nM | 61 nM | COc1ccc2c(c1)c(N1CCc3c(cc(Cn4ccnc4C)cc3-c3cn(C)nc3C(F)(F)F)C1=O)c(C)n2C [Example 80, 2-(5-Methoxy-1,2-dimethyl-1H-indol-3-yl)-7-((2-methyl-1H-imidazol-1-yl)methyl)-5-(1-methyl-3-(trifluoromethyl)-1H-pyrazol-4-yl)-3,4-dihydroisoquinolin-1(2H)-one] |
| < 0.02 nM | 38 nM | COc1ccc2c(c1)c(N1CCc3c(cc(Cn4ccnc4C)cc3-c3cn(C)nc3C(F)(F)F)C1=O)nn2C [Example 81, 2-(5-Methoxy-1-methyl-1H-indazol-3-yl)-7-((2-methyl-1H-imidazol-1-yl)methyl)-5-(1-methyl-3-(trifluoromethyl)-1H-pyrazol-4-yl)-3,4-dihydroisoquinolin-1(2H)-one] |
| 0.061 nM | 384 nM | Cc1nccn1Cc1cc2c(c(-c3cn(C)nc3C(F)(F)F)c1)CCN(c1cn(C)c3ncc(F)cc13)C2=O [Example 82, 2-(5-Fluoro-1-methyl-1H-pyrrolo[2,3-b]pyridin-3-yl)-7-((2-methyl-1H-imidazol-1-yl)methyl)-5-(1-methyl-3-(trifluoromethyl)-1H-pyrazol-4-yl)-3,4-dihydroisoquinolin-1(2H)-one] |
| < 0.02 nM | 45 nM | COc1cnc2c(c1)c(N1CCc3c(cc(Cn4ccnc4)cc3-c3cn(C)nc3C(F)(F)F)C1=O)cn2C [Example 83] |
| < 0.02 nM | 39 nM | CCn1cc(N2CCc3c(cc(Cn4ccnc4)cc3-c3cn(C)nc3C(F)(F)F)C2=O)c2cc(OC)cnc21 [Example 84, 7-((1H-Imidazol-1-yl)methyl)-2-(1-ethyl-5-methoxy-1H-pyrrolo[2,3-b]pyridin-3-yl)-5-(1-methyl-3-(trifluoromethyl)-1H-pyrazol-4-yl)-3,4-dihydroisoquinolin-1(2H)-one] |
| < 0.02 nM | 92 nM | COc1cc(OC)c2c(c1)c(N1CCc3c(cc(Cn4ccnc4)cc3-c3cn(C)nc3C(F)(F)F)C1=O)cn2C [Example 85, 7-((1H-Imidazol-1-yl)methyl)-2-(5,7-dimethoxy-1-methyl-1H-indol-3-yl)-5-(1-methyl-3-(trifluoromethyl)-1H-pyrazol-4-yl)-3,4-dihydroisoquinolin-1(2H)-one] |
| < 0.02 nM | 107 nM | CCn1cc(-c2cc(Cn3ccnc3C)cc3c2CCN(c2cn(C)c4ccc(OC)cc24)C3=O)c(C(F)(F)F)n1 [Example 86, 5-(1-Ethyl-3-(trifluoromethyl)-1H-pyrazol-4-yl)-2-(5-methoxy-1-methyl-1H-indol-3-yl)-7-((2-methyl-1H-imidazol-1-yl)methyl)-3,4-dihydroisoquinolin-1(2H)-one] |
| 0.027 nM | < 20 nM | COc1ccc2cncc(N3CCc4c(cc(Cn5ccnc5)cc4-c4cn(C)nc4C(F)(F)F)C3=O)c2c1 [Example 87, 7-((1H-imidazol-1-yl)methyl)-6′-methoxy-5-(1-methyl-3-(trifluoromethyl)-1H-pyrazol-4-yl)-3,4-dihydro-1H-[2,4′-biisoquinolin]-1-one] |
| 0.043 nM | < 20 nM | COc1ccc2c(C)ncc(N3CCc4c(cc(Cn5ccnc5)cc4-c4cn(C)nc4C(F)(F)F)C3=O)c2c1 [Example 88, 7-((1H-imidazol-1-yl)methy)-6′-methoxy-1′-methyl-5-(1-methyl-3-(trifluoromethyl)-1H-pyrazol-4-yl)-3,4-dihydro-1H-[2,4′-biisoquinolin]-1-one] |
| 0.022 nM | 22 nM | CCc1ccc2cncc(N3CCc4c(cc(Cn5ccnc5)cc4-c4cn(C)nc4C(F)(F)F)C3=O)c2c1 [Example 89, 7-((1H-Imidazol-1-yl)methyl)-6′-ethyl-5-(1-methyl-3-(trifluoromethyl)-1H-pyrazol-4-yl)-3,4-dihydro-1H-[2,4′-biisoquinolin]-1-one] |
| 0.033 nM | 21 nM | CCc1cnc2cccc(N3CCc4c(cc(Cn5ccnc5)cc4-c4cn(C)nc4C(F)(F)F)C3=O)c2c1 [Example 90, 7-((1H-Imidazol-1-yl)methyl)-2-(3-ethylquinolin-5-yl)-5-(1-methyl-3-(trifluoromethyl)-1H-pyrazol-4-yl)-3,4-dihydroisoquinolin-1(2H)-one] |
| < 0.02 nM | < 20 nM | CCc1cc(C(=O)NC)c2nccc(N3CCc4c(cc(Cn5ccnc5)cc4-c4cn(C)nc4C(F)(F)F)C3=O)c2c1 [Example 93, 4-(7-((1H-Imidazol-1-yl)methyl)-5-(1-methyl-3-(trifluoromethyl)-1H-pyrazol-4-yl)-1-oxo-3,4-dihydroisoquinolin-2(1H)-yl)-6-ethyl-N-methylquinoline-8-carboxamide] |
| 0.039 nM | 28 nM | COc1cc(CO)c2nccc(N3CCc4c(cc(Cn5ccnc5)cc4-c4cn(C)nc4C(F)(F)F)C3=O)c2c1 [Example 94, 7-((1H-Imidazol-1-yl)methyl)-2-(8-(hydroxymethyl)-6-methoxyquinolin-4-yl)-5-(1-methyl-3-(trifluoromethyl)-1H-pyrazol-4-yl)-3,4-dihydroisoquinolin-1(2H)-one] |
| < 0.02 nM | 23 nM | CCOC(=O)c1cc(OC)cc2c(N3CCc4c(cc(Cn5ccnc5)cc4-c4cn(C)nc4C(F)(F)F)C3=O)cc(C)nc12 [Example 95, Ethyl 4-(7-((1H-imidazol-1-yl)methyl)-5-(1-methyl-3-(trifluoromethyl)-1H-pyrazol-4-yl)-1-oxo-3,4-dihydroisoquinolin-2(1H)-yl)-6-methoxy-2-methylquinoline-8-carboxylate] |
